In patent publication US8633188B2, “Aminodihydrothiazine derivatives” (Shionogi & Co., Ltd., priority 2005, dated 2014):

test system: not given; assay: not given; conditions: not given

| Structure (SMILES) | melting point [°C] |
| --- | --- |
| CC1(c2cccc(NC(=O)c3ncc(Br)cn3)c2)CCSC(N)=N1 (stereo not drawn) [Compound 900] | 205 to 207 |
| CC1(c2ccccc2)CCOC(N)=N1.Cl (stereo not drawn) | 194 to 195 |
| CC1(c2cccc(NC(=O)c3ccc(C4CC4)cn3)c2)CCSC(N)=N1 (stereo not drawn) [Compound 738] | 181 to 183 |

target: recombinant human BACE-1 protein (Homo sapiens (Human), UniProt P56817); assay: Measurement of inhibition of β-secretase activity (fluorescence-quenched peptide substrate, time-resolved fluorescence); type: biochemical; conditions: recombinant human BACE-1 7.4 nM, substrate peptide 18 nM, pH 5.0, 3 h at 30° C.; same test as table 170
Sequence (P56817 46-501): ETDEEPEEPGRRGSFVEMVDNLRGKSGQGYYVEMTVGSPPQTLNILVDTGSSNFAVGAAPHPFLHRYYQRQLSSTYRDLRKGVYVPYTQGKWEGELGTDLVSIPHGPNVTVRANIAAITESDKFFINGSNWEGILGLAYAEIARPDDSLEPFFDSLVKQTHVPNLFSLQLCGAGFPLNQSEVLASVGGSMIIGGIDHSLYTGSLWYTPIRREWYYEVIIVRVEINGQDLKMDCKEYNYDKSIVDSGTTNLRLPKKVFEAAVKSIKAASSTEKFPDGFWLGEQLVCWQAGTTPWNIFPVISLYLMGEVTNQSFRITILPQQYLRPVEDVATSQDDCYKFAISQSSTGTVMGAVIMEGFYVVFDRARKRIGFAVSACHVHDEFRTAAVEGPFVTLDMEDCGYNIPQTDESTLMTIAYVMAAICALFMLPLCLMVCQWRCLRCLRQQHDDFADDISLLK
Procedure: Zero point five μL of the test compounds (dissolved in N,N′-dimethylsulfoxide) were incubated with 48.5 μL of the fluorescence-quenched peptide substrate solution (Biotin-XSEVNLDAEFRHDSGC-Eu: X=εe-amino-n-capronic acid,Eu=Europium cryptate) and 1 μL of recombinant human BACE-1 protein (R&D systems) for 3 h at 30° C. in the 96 well half-area plate (black color plate,Costar). The substrate peptide was synthesized by reacting with Biotin-XSEVNLDAEFRHDSGC (Peptide Institute) and Cryptate TBPCOOH mono SMP (CIS bio international). […] The enzymatic reaction was performed in sodium acetate buffer (50 mM sodium acetate (pH 5.0), 0.008% Triton X-100). After the reaction, a 50 μL of 8.0 μg/mL Streptavidin-XL665 (CIS bio international) dissolved in phosphate buffer (150 mM K2HPO4—KH2PO4 (pH 7.0), 0.008% Triton X-100, 0.8 M KF) was add to each well and incubated for 1 h at 30° C.

| Structure (SMILES) | IC50 [µM] |
| --- | --- |
| CC1(c2cccc(CCC(=O)Nc3ccccc3)c2)CCSC(N)=N1 (stereo not drawn) [Compound 732] | < 100 |
| CC1(c2cc(NC(=O)c3ccc(Br)cc3)cc(S(C)(=O)=O)c2)CCSC(N)=N1 (stereo not drawn) [Compound 71] | < 100 |
| CC1(c2cccc(NC(=O)c3ncc(Br)cn3)c2)CCSC(N)=N1 (stereo not drawn) [Compound 900] | < 100 |
| CC1(c2cccc(NC(=O)/C=C/c3cccc(F)c3)c2)CCSC(N)=N1 (stereo not drawn) [Compound 36] | < 100 |
| CC1(c2cccc(NC(=O)c3ccnnc3)c2)CCSC(N)=N1 (stereo not drawn) [Compound 1274] | < 100 |
| CC1(c2cc(NC(=O)c3ccc(Cl)cc3)cc(S(C)(=O)=O)c2)CCSC(N)=N1 (stereo not drawn) [Compound 30] | < 100 |
